Results reported in patent publication US20240016762A1, “DUAL ANALGESIC/ANTI-INFLAMMATORY COMPOSITIONS COMPRISING CB2 RECEPTOR AGONISTS, COMBINATIONS, AND METHODS OF USE THEREOF” (Altus Formulation lnc., priority 2020, published 2024).

Key:
[1] = system: plantar incision in the hind paw (post-operative incisional pain); assay: Rat postoperative incisional (plantar incision) pain model, von Frey withdrawal threshold; details: iv; for ED50: Rattus norvegicus, read-out: ED50 (median effective dose)
Procedure: The model developed was based on that described by Labuda et al. (supra). […] All test articles were administered intravenously via the tail vein as a single bolus.
Male Sprague Dawley rats (Charles River, St-Constant, Qc, Canada), were purchased and housed in auto-ventilated cages in a climate-controlled room on a 12-hour light/dark cycle. The animals were allowed free access to food pellets and water and weighed 200-225 g at the time of the testing.
Post-operative incisional pain was induced via a 1 cm plantar incision in the hind paw. Briefly, under deep anesthesia with isoflurane the plantar aspect of the hind paw was cleaned and sterilized using a 10% povidone-iodine solution after which a 1 cm longitudinal incision was made with a number 11 blade. The incision penetrated through the skin and fascia of the plantar aspect of the foot. The plantaris muscle was also elevated and incised longitudinally, the muscle origin remaining intact. After hemostatis with gentle pressure, the skin was closed with 2 mattress sutures of 5-0 nylon and the wound site covered with an antibacterial ointment. The rats were then placed in clear Plexiglas cages with plastic grid floors (8×8 mm) and allowed to acclimate.
The pain response was evaluated using the von Frey mechanical stimulation test employing von Frey filaments applied vertically to an area adjacent to the wound. […] The resistance to bending (reflective of the applied pressure) of the filament causing a withdrawal response was then recorded as the withdrawal threshold. […] After each filament application, animals were given a 5 minute test-free period after which the test was repeated the lowest force required for a withdrawal response from the 2 tests being recorded as the withdrawal threshold (WT). […]
The paw withdrawal threshold was again measured at 0.25, 1, 2, 3, 4, 5, 6, 7, 8 hours post treatment administration animal responses being plotted as withdrawal response/time curves for each dose given as before.

[2] = system: corneal cauterization and capsaicin challenge (corneal pain); details: cited from earlier work; for ED50: Thapa et al (2018)
[3] = target: CB2 receptor (Homo sapiens, UniProt P34972); details: Smoum et al. (2015); cited from earlier work
CB2 receptor, sequence (P34972 whole entry): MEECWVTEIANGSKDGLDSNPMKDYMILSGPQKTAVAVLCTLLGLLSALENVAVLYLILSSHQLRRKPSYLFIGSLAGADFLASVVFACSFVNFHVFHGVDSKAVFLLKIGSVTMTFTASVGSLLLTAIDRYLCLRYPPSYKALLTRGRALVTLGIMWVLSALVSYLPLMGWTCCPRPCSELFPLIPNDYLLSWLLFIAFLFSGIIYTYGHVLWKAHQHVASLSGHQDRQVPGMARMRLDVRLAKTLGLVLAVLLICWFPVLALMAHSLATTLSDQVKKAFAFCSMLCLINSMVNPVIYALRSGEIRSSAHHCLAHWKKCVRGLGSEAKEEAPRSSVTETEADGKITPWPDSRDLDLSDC

Cc1ccc(-c2cc(C(F)(F)F)nn2-c2ccc(S(N)(=O)=O)cc2)cc1 [celecoxib]
ED50 [1]: 22.3 mg/kg

C=C(C)[C@@H]1CCC(C)=C[C@H]1c1c(O)cc(CCCCC)cc1O [CBD]
ED50 [2]: 5%

O=C(c1ccccc1)c1ccc2n1CCC2C(=O)O (centres unmarked) [Ketorolac, ketorolac]
ED50 [1]: 23.1 mg/kg | Dose/response relationship of AUC0.25-8 hr [1]: clear dose response effect

CCCCCc1cc(O)c2c(c1)OC(C)(C)[C@@H]1CC=C(C)C[C@@H]21 [A8 THC]
ED50 [2]: 1%

CCCCCCC(C)(C)c1cc(OC)c([C@@H]2C=C(CO)[C@@H]3C[C@H]2C3(C)C)c(OC)c1 [HU-308]
Pain score ([2]; 1.5% solution in soybean oil, Thapa et al. (2018)): 17 | Analgesic effect ([2]; doses lower than 1.5%, Thapa et al. (2018)): failed to generate an analgesic effect

CCCCCCC(C)(C)c1cc(OC)c([C@@H]2C=C(CO)[C@@H]3C[C@H]2C3(C)C)c(OC)c1 (single isomer, unassigned) [Batch E2]
Affinity for CB2 receptor relative to E1 [3]: lower affinity for CB2 receptor than E1
